According to patent US7214495B2, “Screening method” (Takeda Pharmaceutical Company Limited, priority 2002, dated 2007):

Legend:
[1] = system: p44/42 MAP kinase in MIN6 cells; test: MAP kinase activation (western blot) in MIN6 cells; assay type: cell-based, mouse; details: PD98059 50 μM during preincubation/incubation; 5 minutes
Description: The medium used was 4.5 g/l of glucose-containing Dulbecco's Modified Eagle Medium (DMEM, Invitrogen, Inc.) supplemented with 15% fetal calf serum (ThermoTrace, Inc.), 5.5 μM 2-mercaptethanol (Invitrogen, Inc.), 20 mM HEPES pH 7.3, 100 U/ml penicillin and 100 μg/ml streptomycin. The mouse pancreatic β cell line MIN6 cells were plated in a 12-well plate at a density of 2×10^5/well and incubated overnight. On the following morning, the medium was exchanged and incubation was continued overnight. The medium was again exchanged on the following morning. After incubation for 3 hours, preincubation was carried out in 22 mM glucose-containing KRBH for an hour. Various fatty acids were dissolved in KRBH (22 mM glucose) at a density of 10 μM followed by incubation for 2.5 minutes (or 5 minutes). MAPK inhibitor (PD98059) was added to KRBH in a concentration of 50 μM during the preincubation/incubation. After lysis/extraction in a sample buffer (TEFCO, Inc.), the cells were separated on SDS-PAGE and analyzed by western blotting using PhosphoPlus p44/42 MAP kinase (Thr202/Tyr204) Antibody Kit (Cell Signaling Technology, Inc.). […] The activation of MAPK occurred by the fatty acids showing the agonist activity in MIN6 as well as in the GPR40-expressed CHO cells. Thus, it was strongly supported that GPR40 would take part in MIN6 stimulation of fatty acids at least in part.

mouse GPR40 mRNA = test: Mouse GPR40 mRNA expression in MIN6 after siRNA introduction; assay type: cell-based; details: 2 days after introduction; vs random sequence siRNA
Description: MIN6 cells were plated in a 24-well plate and incubated for a day. Based on the method of EXAMPLE 18, m40i103 or Scramble II duplex siRNA, which was a random sequence siRNA, was then introduced using HVJ Envelope VECTOR KIT GenomONE. After incubation for 2 days, the total RNA of the same cells was prepared in a manner similar to EXAMPLE 7, using Isogen (Nippon Gene K. K.), following the manual attached. Using as a primer 100 ng of random hexamer based on 1 μg of the resulting total RNA, cDNA was synthesized using SuperScriptII reverse transcriptase (Invitrogen, Inc.), which was lysed in 40 μl of TE buffer (pH 8.0). The expression levels of mouse GPR40 and mouse GAPDH mRNA were determined by the method described in EXAMPLE 4.

[2] = system: mouse GPR40-GFP fusion protein; test: Expression of mouse GPR40-GFP fusion protein in CHO cells after siRNA introduction (enzyme immunoassay); assay type: cell-based; details: siRNA 2.86 pmols/0.5 μl or 8.57 pmols/1.5 μl, one day
Description: Mouse GPR40-GFP fusion protein-expressed CHO cells prepared by publicly known methods were plated in a 96-well plate at a density of 3×10^4/well, followed by incubation for a day. The siRNA (Dharmacon, Inc.) having various sequences, which was prepared according to the report by Elbasir et al. (Nature 411 (6836), 494–498 (2001)) using HVJ Envelope VECTOR KIT GenomONE™ (Ishihara Sangyo Kaisha, LTD.), was introduced into the cells (in a concentration of 2.86 pmols/0.5 μl or 8.57 pmols/1.5 μl), incubation followed for further one day. The expression level of mouse GPR40-GFP was detected by enzyme immunoassay as shown below. After the culture supernatant was discarded and the cells were washed with HBSS (Invitrogen), the cells were immobilized on 0.01% glutaraldehyde (Wako Pure Chemical) for 5 minutes, followed by blocking with 2% BSA-containing PBS (Takara Shuzo). Anti-GFP monoclonal antibody 3E6 (Nippon Gene) diluted to 500-fold was added to the cells. After incubation at room temperature for 2 hours, the cells were washed and HRP-labeled anti-mouse IgG antibody (ICN) diluted to 500-fold was added thereto followed by incubation at room temperature for 2 hours. After washing, TMB Microwell peroxidase substrate (Funakoshi) was added to the cells. After incubation for 30 minutes, sulfuric acid was added to stop the color-forming reaction and absorbance was measured at 450 nm.

| Compound | effect on fatty acid-induced activation of MAPK in MIN6 [1] | expression of GPR40 mRNA (GPR40/GAPDH) in MIN6 (mouse GPR40 mRNA) | expression level of GPR40-GFP (absorbance at 450 nm) [2] |
| --- | --- | --- | --- |
| COc1cccc(-c2cc(=O)c3ccccc3o2)c1N [PD98059] | almost suppressed | – | – |
| m40i103: mouse GPR40-specific siRNA; sense strand SEQ ID NO: 34, antisense strand SEQ ID NO: 35 (sense CGCCAGUUGUGACAUUCUUNN; antisense NNGCGGUCAACACUGUAAGAA; chemistry not given here; one strand is listed 3' to 5') | – | decreased | reduction in the expression level |
| m40i256: mouse GPR40-specific siRNA; sense strand SEQ ID NO: 36, antisense strand SEQ ID NO: 37 (sense CUUGUUAGCCAUCCGAGGCNN; antisense NNGAACAATCGGTAGGCTCCG; chemistry not given here; one strand is listed 3' to 5') | – | – | reduction in the expression level |
